Measurements taken from PMC8608343 (PLoS ONE, 2021).
Values after ≈ are worked out from the molar mass of the structure shown.

Columns and labels:
Leishmania donovani [1] = conditions: cited from earlier work
[2] = system: Leishmania donovani promastigotes; assay: Antileishmanial activity against promastigotes (MTT assay); type: cell-based; conditions: for IC50: Leishmania donovani, 96 hrs at 25° C, MTT, mean of three experiments, read-out: IC50 (μg/ml) ±SD promastigote; for Therapeutic Index (TC50/IC50) promastigotes: TC50 RAW / IC50 promastigote
From the text: Amphotericin B was used as a positive control. The 3-(4,5-Dimethylthiazol-2-yl)-2,5-diphenyltetrazolium bromide (MTT) assay was used to determine the parasite viability as previously described.

[3] = system: Leishmania donovani amastigotes in RAW macrophage cells; assay: Antileishmanial activity against macrophage-amastigotes (MTT assay); type: cell-based; conditions: for IC50: Leishmania donovani, Macrophage, amastigotes in RAW macrophages, MTT, read-out: IC50 (μg/ml) ±SD amastigote; for Therapeutic Index (TC50/IC50) amastigotes: TC50 RAW / IC50 amastigote
Protocol: The RAW macrophage cells were infected with promastigotes at a density of 1:10 ratio, respectively for 12 hrs and the non-phagocytosed promastigotes and media removed by aspiration. The RAW macrophages cells containing the internalized amastigote cells were treated with the compounds to test for their growth inhibitory potentials as previously described. The 3-(4,5-Dimethylthiazol-2-yl)-2,5-diphenyltetrazolium bromide (MTT) assay was also used to determine the parasite viability. […] was measured with a Varioskan Lux Elisa plate reader at a wavelength of 570 nm.

[4] = system: RAW 264.7 murine macrophage cell line; assay: Cytotoxicity against mammalian RAW macrophage cell line (MTT assay); conditions: 48 hrs, 50% cytotoxic concentration
From the text: Here, amphotericin B was used as a positive control and the negative control was untreated RAW cell line.

O+ human red blood cells = assay: Haemolytic potential; conditions: 2% haematocrit, up to 100 μg/ml
Protocol: The compounds were tested against the O^+ human red blood cells (obtained from the Malaria laboratory of WACCBIP) at a density of 2% haematocrit for their ability to lyse erythrocytes upon incubation. Here, a concentration of up to 100 μg/ml of compounds was used, and the 50% haemolytic concentration (HC50) of the compounds were determined by analysis of dose-response curves as described.

[5] = system: Leishmania donovani promastigotes; assay: Growth kinetics and cytocidal/cytostatic (growth reversibility) assay; type: cell-based; conditions: 1 μg/ml, 120 hrs treatment, then 96 hrs in fresh media
Protocol: The compounds (at 1 μg/ml) were tested for their effects on the growth kinetic pattern against the promastigotes of L. donovani. The parasite cells (2 x 10^5 cells/ml) were incubated at 25° C in the presence of the test compounds in M199 supplemented with 10% FBS. Amphotericin B treated parasites (0–50 μg/ml) were used as the positive control while the untreated promastigotes in medium alone served as the negative control. Viable cells were counted every 24 hrs for a total of 120 hrs as indicated in previous studies.
The cytocidal/cytostatic effect of the test compounds were assessed by analyzing the treated and untreated parasites after 120 hrs of incubation. Cells were washed twice with fresh M199, resuspended in complete M199 media and incubated further for 96 hrs. The viable cells were then counted microscopically.

[6] = system: Leishmania donovani promastigotes; assay: Externalization of phosphatidylserine, Annexin V-FITC / PI flow cytometry; type: cell-based; conditions: 2x IC50, 24 hrs; for effect on externalization of phosphatidylserine (apoptotic potential): p-value = 0.9926
Protocol: A double staining of treated/ untreated promastigotes of Leishmania donovani (2 x 10^5 cells/ml) with Annexin V-FITC and Propidium Iodide (PI) was done to determine the apoptotic and necrotic effects of the some of the established cytocidal compounds amongst the eighteen MMV compounds studied. Treatment was set at 2x IC50 concentrations of the respective test compounds against a negative control of untreated promastigote cells in a 24 hrs incubation period. The cells were then prepared using the Annexin V-FITC apoptosis detection kit following the Sigma protocol (Catalog Number: APOAF). Further treatment and analysis of cells was done as shown previously.

[7] = system: Leishmania donovani promastigotes; assay: Cell cycle analysis by flow cytometry; type: cell-based; conditions: 2x IC50, 24 hrs, versus untreated
Protocol: The analysis was done using the protocol as designed in the Guava cell cycle reagent manual (catalog No. 4500–0220). […] Both treated and untreated Leishmania cells were incubated for 24 hrs, samples read using a flow cytometer (BD LSR Fortessa X-20 analyzer BD Biosciences), and the respective cell counts analyzed in the G0/G1, S and G2/M Phases. Data generated was further analyzed using the FlowJo V10 software.

[8] = system: Leishmania donovani promastigotes; assay: Morphological and mitochondrion effects by fluorescence microscopy (DAPI, MitoTracker); type: cell-based
Protocol: Their mitochondrial integrity were analyzed using a slightly modified DAPI and Mitotracker dye protocol as described by Amisigo and colleagues.

[9] = system: Leishmania donovani promastigotes; assay: ROS generation in treated promastigotes (H2DCFDA); type: cell-based; conditions: 100, 50 or 25 μM, 72 hrs
Protocol: The degree of reactive oxygen species (ROS) production in treated promastigote and amastigote cells of L. donovani were assessed using the H2DCFDA (2’,7’-dichlorodihydrofluorescein diacetate) rich fluorescent dye (MAK145 Sigma-Aldrich) ROS detection kit. […] Amoxicillin was used as a positive control for pro-oxidative generation while Vitamin C was used as a positive control for anti-oxidative potential. The treated and untreated cells were then suspended in PBS, washed, and resuspended in PBS, then incubated with the ROS detection master mix for 1 hr as instructed by the protocol. The cells were analyzed for intracellular ROS generation by measuring the fluorescence intensity which is proportional to the ROS production level using the Varioskan Lux Elisa microplate reader (Thermo Fischer Scientific, USA) at a wavelength of 605 nm.

Leishmania donovani [10] = system: Leishmania donovani; parameters: method as in PMID 33268145; conditions: dosed at 50 mg/kg, mouse model of visceral leishmaniasis; cited from earlier work

| Compound | efficacy among water-soluble ferrocenylquinoline derivatives (Leishmania donovani [1]) | IC50 [2] [µg/mL] | Therapeutic Index (TC50/IC50) promastigotes [2] | IC50 [3] [µg/mL] | Therapeutic Index (TC50/IC50) amastigotes [3] | TC50 (μg/ml) ±SD RAW [4] [µg/mL] | HC50 (O+ human red blood cells) [µg/mL] | cytocidal/cytostatic effect upon drug withdrawal [5] | more necrotic cells compared to negative control [6] | effect on externalization of phosphatidylserine (apoptotic potential) [6] | increase in parasites at the S phase [7] [fold] | cells with lost kinetoplast DNA and enlarged nuclear DNA ([8]; 2x IC50, 24 hrs) [%] | morphological / mitochondrial changes after 72 hrs ([8]; 2x IC50, 72 hrs) | ROS generation effect in promastigotes [9] | morphological / mitochondrial changes after 24 hrs ([8]; 2x IC50, 24 hrs) | nuclear/ kinetoplast DNA degenerated ([8]; 2x IC50, 72 hrs) [%] | parasite burden reduction (Leishmania donovani [10]) [%] |
| --- | --- | --- | --- | --- | --- | --- | --- | --- | --- | --- | --- | --- | --- | --- | --- | --- | --- |
| C1CCCC1.CN(CCn1cc(C2CCCC2)nn1)c1ccnc2cc(Cl)ccc12.I.[Fe] [CQFC1] | most efficacious of the molecules |  |  |  |  |  |  |  |  |  |  |  |  |  |  |  |  |
| CC1COC(Cn2cncn2)(c2ccc(Oc3ccc(Cl)cc3)cc2Cl)O1 (stereo not shown) [Compound C06A, Difenoconazole, reference compound] |  | 0.21 ± 0.008 (≈ 0.517 µM) | 476.19 | 4.6 ± 0.004 (≈ 11.3 µM) | 21.74 | >100 | >100 | cytocidal effect | ~17% | none of the compounds showed any significant effects | 1.5 | 60 | parasite clearance in most fields |  |  |  |  |
| Cc1noc(C)c1COc1cccc(C(=O)N=c2[nH]cccc2C)c1 [Compound D05A] |  | 0.2 ± 0.02 (≈ 0.593 µM) | 500 | 3.8 ± 0.03 (≈ 11.3 µM) | 26.32 | >100 | >100 | cytocidal effect | about 6.5% | none of the compounds showed any significant effects | 1.5 |  | most of the fields had total parasite clearance | anti-oxidative effect | did not show any obvious abnormalities | 90 |  |
| O=[N+]([O-])c1cn2c(n1)O[C@@H](COc1ccc(-c3ccc(F)cc3)nc1)CC2 [DNDI-0690] |  |  |  |  |  |  |  |  |  |  |  |  |  |  |  |  | 96 |
